Measured values: patent US9073895B2 (Boehringer Ingelheim International GmbH, priority 2010, dated 2015)

Experiments:
[1] = molecular target: T1, recombinant human FLAP protein (Homo sapiens, UniProt P20292); assay: FLAP binding assay (SPA, displacement of [125I]L-691,831); conditions: membranes of sf9 cells expressing human FLAP, [125I]L-691,831 probe; read-out: hFLAP binding IC50
T1 construct: made in house; host or cells: Sf9 insect cells (membrane fraction, 100,000 x g pellet)
T1 sequence (P20292 1-161): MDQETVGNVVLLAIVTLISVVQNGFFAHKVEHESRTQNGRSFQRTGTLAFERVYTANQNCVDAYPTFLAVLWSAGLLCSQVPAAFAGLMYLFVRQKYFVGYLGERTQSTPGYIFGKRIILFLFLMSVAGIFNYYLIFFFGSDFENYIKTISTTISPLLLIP
Method: Compounds are assessed for the ability to bind to FLAP in a binding assay that measures compound-specific displacement of an iodinated (^125I) FLAP inhibitor via a Scintillation Proximity Assay format (adapted from S. Charleson et al., Mol. Pharmacol., 1992, 41, 873-879).
Cell pellets produced from sf9 insect cells expressing recombinant human FLAP protein are resuspended in buffer A [15 mM Tris-HCl (pH 7.5), 2 mM MgCl2, 0.3 mM EDTA, 1 mM PMSF]. The cells are lysed with a Dounce homogenizer and the material is centrifuged at 10,000×g for 10 minutes. The supernatant is then collected and centrifuged at 100,000×g for 60 minutes. To prepare membrane protein for an assay, an aliquot of the 100,000×g pellet is resuspended in 1 ml of buffer A, Dounce homogenized, and finally subjected to polytron mixing (30 seconds). Membrane protein (25 μl, 5 μg) is mixed with WGA SPA beads (Amersham) and stirred for 1 h. To an assay plate (Perkin Elmer FlexiPlate) is added 25 μl of test compound prepared in Binding buffer [100 mM Tris (pH 7.5), 140 mM NaCl, 5% glycerol, 2 mM EDTA, 0.5 mM TCEP, 0.05% Tween 20], 25 μl of [^125I]L-691,831 (an iodinated analog of MK-591, Charleson et al. Mol. Pharmacol., 41, 873-879, 1992) and finally 50 μl of the bead/protein mixture. (final concentrations: beads, 200 μg/well; protein, 5μg/well; [^125I] probe, 0 08 nM/well(17 nCi/well). The plates are shaken for 2 h before reading on a Microbeta plate reader. Non-specific binding is determined by the addition of 10 μM cold L-691,831 compound.

[2] = test system: synthesis of LTB4 in human whole blood; assay: Human whole blood LTB4 production inhibition assay; format: cell-based; conditions: heparinized human whole blood, calcimycin 20 μM, plasma LTB4; read-out: HuWB IC50
Method: Compounds are additionally tested in a human whole blood assay to determine their ability to inhibit the synthesis of LTB4 in a cellular system. Compounds are combined with heparinized human whole blood and incubated for 15 minutes at 37° C. Calcimycin (20 μM final, prepared in phosphate-buffered saline, pH 7.4) is then added and the mixture is incubated for another 30 minutes at 37° C. The samples are centrifuged for 5 min at low speed (1500×g) and the plasma layer is removed. Plasma LTB4 concentrations are then measured using an antibody-based homogenous time-resolved fluorescence method (CisBio, Bedford, Mass.).

SMILES	IC50 [1] [µM]	IC50 [2] [µM]
COc1ccc2nc(NC(=O)C3(c4ccc(-c5cnc(N)nc5)cc4)CCOCC3)sc2c1 [Example 7, 4-[4-(2-aminopyrimidin-5-yl)phenyl]-N-(6-methoxy-1,3-benzothiazol-2-yl)tetrahydro-2H-pyran-4-carboxamide]	0.0107	2.66
Nc1ncc(-c2ccc(C3(C(=O)Nc4ccc5c(c4)OCCO5)CCOCC3)cc2)cn1 [Example 12, 4-[4-(2-aminopyrimidin-5-yl)phenyl]-N-(2,3-dihydro-1,4-benzodioxin-6-yl)tetrahydro-2H-pyran-4-carboxamide]	0.068	2.23
Nc1ncc(-c2ccc(C3(C(=O)Nc4cc(Cl)cc(Cl)c4)CCOCC3)cc2)cn1 [Example 15, 4-[4-(2-aminopyrimidin-5-yl)phenyl]-N-(3,5-dichlorophenyl)tetrahydro-2H-pyran-4-carboxamide]	0.0235	> 3
Nc1ncc(-c2ccc(C3(C(=O)Nc4ccc5ncsc5c4)CCOCC3)cc2)cn1 [Example 18, 4-[4-(2-aminopyrimidin-5-yl)phenyl]-N-(1,3-benzothiazol-6-yl)tetrahydro-2H-pyran-4-carboxamide]	0.016	1.71
Nc1ncc(-c2ccc(C3(C(=O)Nc4nc(-c5ccccc5)cs4)CCOCC3)cc2)cn1 [Example 20, 4-[4-(2-aminopyrimidin-5-yl)phenyl]-N-(4-phenyl-1,3-thiazol-2-yl)tetrahydro-2H-pyran-4-carboxamide]	0.016	1.33
Nc1ncc(-c2ccc(C3(C(=O)Nc4cccc(OC(F)(F)F)c4)CCOCC3)cc2)cn1 [Example 21]	0.012	> 3
Nc1ncc(-c2ccc(C3(C(=O)Nc4cccc(Oc5ccccc5)c4)CCOCC3)cc2)cn1 [Example 22, 4-[4-(2-aminopyrimidin-5-yl)phenyl]-N-(3-phenoxyphenyl)tetrahydro-2H-pyran-4-carboxamide]	0.0605	> 3
Nc1ncc(-c2ccc(C3(C(=O)Nc4ccc(-c5csnn5)cc4)CCOCC3)cc2)cn1 [Example 25, 4-[4-(2-aminopyrimidin-5-yl)phenyl]-N-[4-(1,2,3-thiadiazol-4-yl)phenyl]tetrahydro-2H-pyran-4-carboxamide]	0.00865	0.501
Nc1ncc(-c2ccc(C3(C(=O)Nc4cccc(-c5ccncc5)c4)CCOCC3)cc2)cn1 [Example 33, 4-[4-(2-aminopyrimidin-5-yl)phenyl]-N-[3-(pyridin-4-yl)phenyl]tetrahydro-2H-pyran-4-carboxamide]	0.0425	> 3
Nc1ncc(-c2ccc(C3(C(=O)Nc4nc(-c5ccccc5)ns4)CCOCC3)cc2)cn1 [Example 36, 4-[4-(2-aminopyrimidin-5-yl)phenyl]-N-(3-phenyl-1,2,4-thiadiazol-5-yl)tetrahydro-2H-pyran-4-carboxamide]	0.0133	> 3
Nc1ncc(-c2ccc(C3(C(=O)Nc4ccc(OC(F)(F)F)cc4)CCOCC3)cc2)cn1 [Example 39, 4-[4-(2-aminopyrimidin-5-yl)phenyl]-N-[4-(trifluoromethoxy)phenyl] tetrahydro-2H-pyran-4-carboxamide]	0.055	1.92

Continued by falling IC50 [1], values first:

IC50 [1] [µM]	IC50 [2] [µM]	SMILES
0.12	> 3	Nc1ncc(-c2ccc(C3(C(=O)Nc4ccc(C(F)(F)F)cc4)CCOCC3)cc2)cn1 [Example 41, 4-[4-(2-aminopyrimidin-5-yl)phenyl]-N-[4-(trifluoromethyl)phenyl] tetrahydro-2H-pyran-4-carboxamide]
0.095	> 3	Nc1ncc(-c2ccc(C3(C(=O)Nc4cccc(-c5ccccc5)c4)CCOCC3)cc2)cn1 [Example 24, 4-[4-(2-aminopyrimidin-5-yl)phenyl]-N-(biphenyl-3-yl)tetrahydro-2H-pyran-4-carboxamide]
0.0597	> 3	Nc1ncc(-c2ccc(C3(C(=O)Nc4ccc(C(F)(F)F)cn4)CCOCC3)cc2)cn1 [Example 23, 4-[4-(2-aminopyrimidin-5-yl)phenyl]-N-[5-(trifluoromethyl)pyridin-2-yl]tetrahydro-2H-pyran-4-carboxamide]
0.0595	> 3	Cc1cc(C)c2ccc(NC(=O)C3(c4ccc(-c5cnc(N)nc5)cc4)CCOCC3)nc2n1 [Example 38, 4-[4-(2-aminopyrimidin-5-yl)phenyl]-N-(5,7-dimethyl-1,8-naphthyridin-2-yl)tetrahydro-2H-pyran-4-carboxamide]
0.0465	1.12	N#Cc1ccc(NC(=O)C2(c3ccc(-c4cnc(N)nc4)cc3)CCOCC2)nc1 [Example 32, 4-[4-(2-aminopyrimidin-5-yl)phenyl]-N-(5-cyanopyridin-2-yl)tetrahydro-2H-pyran-4-carboxamide]
0.035	> 3	Nc1ncc(-c2ccc(C3(C(=O)Nc4cc(-c5ccccc5)no4)CCOCC3)cc2)cn1 [Example 37, 4-[4-(2-aminopyrimidin-5-yl)phenyl]-N-(3-phenyl-1,2-oxazol-5-yl)tetrahydro-2H-pyran-4-carboxamide]
0.029	1.22	N#Cc1ccc(NC(=O)C2(c3ccc(-c4cnc(N)nc4)cc3)CCOCC2)cc1C(F)(F)F [Example 40, 4-[4-(2-aminopyrimidin-5-yl)phenyl]-N-[4-cyano-3-(trifluoromethyl)phenyl] tetrahydro-2H-pyran-4-carboxamide]
0.026	> 3	Nc1ncc(-c2ccc(C3(C(=O)Nc4cccc(-c5cnco5)c4)CCOCC3)cc2)cn1 [Example 26, 4-[4-(2-aminopyrimidin-5-yl)phenyl]-N-[3-(1,3-oxazol-5-yl)phenyl]tetrahydro-2H-pyran-4-carboxamide]
0.025	3.56	Cc1ccc2nc(NC(=O)C3(c4ccc(-c5cnc(N)nc5)cc4)CCOCC3)sc2c1 [Example 8, 4-[4-(2-aminopyrimidin-5-yl)phenyl]-N-(6-methyl-1,3-benzothiazol-2-yl)tetrahydro-2H-pyran-4-carboxamide]
0.0219	> 3	Nc1ncc(-c2ccc(C3(C(=O)Nc4cnc5ccccc5c4)CCOCC3)cc2)cn1 [Example 11, 4-[4-(2-aminopyrimidin-5-yl)phenyl]-N-(quinolin-3-yl)tetrahydro-2H-pyran-4-carboxamide]
0.018	2.24	COC(=O)c1sc(-c2ccccc2)cc1NC(=O)C1(c2ccc(-c3cnc(N)nc3)cc2)CCOCC1 [Example 30, methyl 3-[({4-[4-(2-aminopyrimidin-5-yl)phenyl]tetrahydro-2H-pyran-4-yl}carbonyl)amino]-5-phenylthiophene-2-carboxylate]
0.0167	≥ 3	Nc1ncc(-c2ccc(C3(C(=O)Nc4ccc(Cl)c(Cl)c4)CCOCC3)cc2)cn1 [Example 13, 4-[4-(2-aminopyrimidin-5-yl)phenyl]-N-(3,4-dichlorophenyl)tetrahydro-2H-pyran-4-carboxamide]
0.0117	0.161	Nc1ncc(-c2ccc(C3(C(=O)Nc4ccc(-c5ccncc5)cc4)CCOCC3)cc2)cn1 [Example 34, 4-[4-(2-aminopyrimidin-5-yl)phenyl]-N-[4-(pyridin-4-yl)phenyl]tetrahydro-2H-pyran-4-carboxamide]
0.0107	0.636	Nc1ncc(-c2ccc(C3(C(=O)Nc4ccc(-c5ccccc5)cc4)CCOCC3)cc2)cn1 [Example 16, 4-[4-(2-aminopyrimidin-5-yl)phenyl]-N-(biphenyl-4-yl)tetrahydro-2H-pyran-4-carboxamide]
0.00895	2.25	COc1ccc(NC(=O)C2(c3ccc(-c4cnc(N)nc4)cc3)CCOCC2)cc1Cl [Example 14, 4-[4-(2-aminopyrimidin-5-yl)phenyl]-N-(3-chloro-4-methoxyphenyl)tetrahydro-2H-pyran-4-carboxamide]
0.0055	0.207	Nc1ncc(-c2ccc(C3(C(=O)Nc4ccc(-c5cnco5)cc4)CCOCC3)cc2)cn1 [Example 27, 4-[4-(2-aminopyrimidin-5-yl)phenyl]-N-[4-(1,3-oxazol-5-yl)phenyl]tetrahydro-2H-pyran-4-carboxamide]
